# Values quoted from earlier work in patent US12616707B2, “Compositions and methods for improving gut health” (Plexus Worldwide, LLC., priority 2017, dated 2026).
# Columns and labels:
# [1] = system: DSS-induced colitis model; details: chlorogenic acid supplementation
# [2] = 0.02% (wt/wt) in high-fat diet vs high-fat control group
compound,measurement,setting,value
O=C(/C=C/c1ccc(O)c(O)c1)O[C@@H]1C[C@](O)(C(=O)O)C[C@@H](O)[C@H]1O [chlorogenic acid],Body weight,high-fat fed mice; [2],significantly lowered
same,Plasma insulin levels,high-fat fed mice; [2],significantly lowered
same,Plasma leptin levels,high-fat fed mice; [2],significantly lowered
same,Visceral fat mass,high-fat fed mice; [2],significantly lowered
same,"Cholesterol concentrations (plasma, adipose tissue and heart)",high-fat fed mice; high-fat diet,lowered
same,"Triglyceride concentrations (plasma, liver and heart)",high-fat fed mice; high-fat diet,lowered
same,IL-1β expression,[1],significant suppression
